These results are taken from the supplement of paper PMC10307832.

What all share (assay): relative viability (nuclei count vs DMSO), 5 days (fraction); higher = more cells survive
Compound in the experiment “CX-5461 + Foretinib”: Cc1cnc(CNC(=O)c2c(=O)c3ccc(N4CCCN(C)CC4)nc3n3c2sc2ccccc23)cn1 [CX-5461] + COc1cc2c(Oc3ccc(NC(=O)C4(C(=O)Nc5ccc(F)cc5)CC4)cc3F)ccnc2cc1OCCCN1CCOCC1 [Foretinib] (partner 0.25 µM)
In a few lines:
(§1)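 Five library-drug doses in √10 steps were combined with a fixed anchor-drug dose, or a single drug was given alone, by pin tool to lung cancer cell lines in 1536-well plates the day after seeding. Nuclei were stained and counted after 5 days. Relative viability is the nuclei count in treated wells over that in vehicle wells, taken as the median of duplicate plates.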

Compound in the experiment “CX-5461 + Lapatinib”: Cc1cnc(CNC(=O)c2c(=O)c3ccc(N4CCCN(C)CC4)nc3n3c2sc2ccccc23)cn1 [CX-5461] + CS(=O)(=O)CCNCc1ccc(-c2ccc3ncnc(Nc4ccc(OCc5cccc(F)c5)c(Cl)c4)c3c2)o1 [Lapatinib] (partner 2 µM)
In a few lines:
as §1

Compound in the experiment “IMD-0354 + AZD7762”: O=C(Nc1cc(C(F)(F)F)cc(C(F)(F)F)c1)c1cc(Cl)ccc1O [IMD-0354] + NC(=O)Nc1cc(-c2cccc(F)c2)sc1C(=O)N[C@H]1CCCNC1 [AZD7762] (partner 0.2 µM)
The method in brief:
as §1

Compound in the experiment “IMD-0354 + OSI-027”: O=C(Nc1cc(C(F)(F)F)cc(C(F)(F)F)c1)c1cc(Cl)ccc1O [IMD-0354] + COc1cccc2cc(-c3nc([C@H]4CC[C@H](C(=O)O)CC4)n4ncnc(N)c34)[nH]c12 [OSI-027] (partner 0.5 µM)
In a few lines: as §1

As to EBC-1, the relative viability in the experiment with CX-5461 + Foretinib (first compound 0.01 µM) came out at 0.108; in the experiment with CX-5461 + Foretinib (first compound 0.03162 µM), 0.085; in the experiment with CX-5461 + Foretinib (first compound 0.1 µM), 0.11; with CX-5461 + Foretinib (first compound 0.3162 µM), 0.112; in the experiment with CX-5461 + Foretinib (first compound 1 µM), 0.0969; with CX-5461 + Lapatinib (first compound 0.01 µM), 0.214. Further, the relative viability came out at 0.191 with CX-5461 + Lapatinib (first compound 0.03162 µM), 0.244 with CX-5461 + Lapatinib (first compound 0.1 µM), 0.2 with CX-5461 + Lapatinib (first compound 0.3162 µM) and 0.208 in the experiment with CX-5461 + Lapatinib (first compound 1 µM).
On to EKVX, for which the relative viability amounted to 0.971 with CX-5461 + Foretinib (first compound 0.01 µM); 0.726 in the experiment with CX-5461 + Foretinib (first compound 0.03162 µM); 0.698 with CX-5461 + Foretinib (first compound 0.1 µM); 0.821 in the experiment with CX-5461 + Foretinib (first compound 0.3162 µM); 1.03 with CX-5461 + Foretinib (first compound 1 µM); 0.228 with CX-5461 + Lapatinib (first compound 0.01 µM). Moreover, the relative viability in the experiment with CX-5461 + Lapatinib (first compound 0.03162 µM) was determined as 0.206; in the experiment with CX-5461 + Lapatinib (first compound 0.1 µM), 0.196; with CX-5461 + Lapatinib (first compound 1 µM) it was 0.198; with IMD-0354 + AZD7762 (first compound 0.04 µM) it was 0.741; in the experiment with IMD-0354 + AZD7762 (first compound 0.1265 µM), 0.625; with IMD-0354 + AZD7762 (first compound 1.265 µM), 0.328. Further, the relative viability came out at 0.21 with IMD-0354 + AZD7762 (first compound 4 µM); 0.771 with IMD-0354 + OSI-027 (first compound 0.04 µM); 0.685 with IMD-0354 + OSI-027 (first compound 0.1265 µM); 0.629 with IMD-0354 + OSI-027 (first compound 0.4 µM); 0.631 with IMD-0354 + OSI-027 (first compound 1.265 µM); 0.19 with IMD-0354 + OSI-027 (first compound 4 µM).
Take EMC-BAC-2: the relative viability with CX-5461 + Foretinib (first compound 0.01 µM) stood at 0.988; in the experiment with CX-5461 + Foretinib (first compound 0.03162 µM), 1.13; with CX-5461 + Foretinib (first compound 0.1 µM), 1.06; in the experiment with CX-5461 + Foretinib (first compound 0.3162 µM) it was 0.928; with CX-5461 + Foretinib (first compound 1 µM), 0.885; in the experiment with CX-5461 + Lapatinib (first compound 0.01 µM), 0.861. The relative viability was 1.04 in the experiment with CX-5461 + Lapatinib (first compound 0.03162 µM); 0.88 with CX-5461 + Lapatinib (first compound 0.1 µM); 0.693 in the experiment with CX-5461 + Lapatinib (first compound 0.3162 µM); 0.588 with CX-5461 + Lapatinib (first compound 1 µM); 1.19 with IMD-0354 + AZD7762 (first compound 0.04 µM); 1.13 with IMD-0354 + AZD7762 (first compound 0.1265 µM). Further, the relative viability with IMD-0354 + AZD7762 (first compound 0.4 µM) is 0.822; in the experiment with IMD-0354 + AZD7762 (first compound 1.265 µM), 0.443; with IMD-0354 + AZD7762 (first compound 4 µM), 0.433; in the experiment with IMD-0354 + OSI-027 (first compound 0.04 µM), 0.403; in the experiment with IMD-0354 + OSI-027 (first compound 0.1265 µM) it was 0.386; in the experiment with IMD-0354 + OSI-027 (first compound 0.4 µM), 0.33. Further, the relative viability with IMD-0354 + OSI-027 (first compound 1.265 µM) was determined as 0.336; in the experiment with IMD-0354 + OSI-027 (first compound 4 µM), 0.3.
In the case of EPLC-272H, the relative viability stood at 0.651 with CX-5461 + Foretinib (first compound 0.01 µM); 0.681 in the experiment with CX-5461 + Foretinib (first compound 0.03162 µM); 0.78 with CX-5461 + Foretinib (first compound 0.1 µM); 0.467 with CX-5461 + Foretinib (first compound 1 µM); 0.936 in the experiment with CX-5461 + Lapatinib (first compound 0.01 µM); 1.12 with CX-5461 + Lapatinib (first compound 0.03162 µM). The relative viability with CX-5461 + Lapatinib (first compound 0.1 µM) worked out at 0.9; with CX-5461 + Lapatinib (first compound 1 µM), 1.02; with IMD-0354 + AZD7762 (first compound 0.04 µM) it was 0.167; with IMD-0354 + AZD7762 (first compound 0.1265 µM) it was 0.217; with IMD-0354 + AZD7762 (first compound 0.4 µM), 0.162; in the experiment with IMD-0354 + AZD7762 (first compound 1.265 µM), 0.19. The relative viability with IMD-0354 + AZD7762 (first compound 4 µM) was 0.118; with IMD-0354 + OSI-027 (first compound 0.04 µM), 0.288; with IMD-0354 + OSI-027 (first compound 0.1265 µM) it was 0.281; with IMD-0354 + OSI-027 (first compound 0.4 µM) it was 0.292; with IMD-0354 + OSI-027 (first compound 1.265 µM), 0.167; in the experiment with IMD-0354 + OSI-027 (first compound 4 µM), 0.0714.
In the case of H3255, the relative viability in the experiment with CX-5461 + Foretinib (first compound 0.01 µM) was found to be 0.907; in the experiment with CX-5461 + Foretinib (first compound 0.03162 µM), 0.854; in the experiment with CX-5461 + Foretinib (first compound 0.1 µM), 0.818; with CX-5461 + Foretinib (first compound 0.3162 µM), 0.558; with CX-5461 + Foretinib (first compound 1 µM), 0.835; with CX-5461 + Lapatinib (first compound 0.01 µM) it was 0.237. In addition, the relative viability came to 0.236 with CX-5461 + Lapatinib (first compound 0.03162 µM); 0.263 with CX-5461 + Lapatinib (first compound 0.1 µM); 0.167 with CX-5461 + Lapatinib (first compound 0.3162 µM); 0.236 in the experiment with CX-5461 + Lapatinib (first compound 1 µM); 0.812 with IMD-0354 + AZD7762 (first compound 0.04 µM); 1 with IMD-0354 + AZD7762 (first compound 0.1265 µM). Besides, the relative viability with IMD-0354 + AZD7762 (first compound 0.4 µM) worked out at 0.573; with IMD-0354 + AZD7762 (first compound 1.265 µM) it was 0.385; with IMD-0354 + AZD7762 (first compound 4 µM), 0.274; with IMD-0354 + OSI-027 (first compound 0.04 µM) it was 0.549; with IMD-0354 + OSI-027 (first compound 0.1265 µM), 0.59; in the experiment with IMD-0354 + OSI-027 (first compound 0.4 µM) it was 0.585. Besides, the relative viability with IMD-0354 + OSI-027 (first compound 1.265 µM) came to 0.488; with IMD-0354 + OSI-027 (first compound 4 µM), 0.302.
